Numbers after ± are expanded uncertainties.
How the values were obtained:
[1] = refractive index (Na D-line) (dimensionless); settings: 293.15 K; 101.33 kPa; Liquid; Standard Abbe refractometry
[2] = Liquid; for mass density: 293.15 K, 101.33 kPa, Vibrating tube method; for Normal boiling temperature: Fischer Boiling Piont Apparatus

SMILES	refractive index [1]	mass density [2] [kg/m3]	Normal boiling temperature [2] [°C]
CCOC(=O)CCC(=O)OCC [diethyl butanedioate]	1.42014 ± 0.00039	1040.22 ± 0.36	217.7 ± 1
CCOC(=O)CCCC(=O)OCC [diethyl glutarate]	1.42414 ± 0.00052	1022.04 ± 0.92	236.5 ± 1
CCOC(=O)CCCCC(=O)OCC [diethyl hexanedioate]	1.42725 ± 0.00039	1007.63 ± 0.34	245.1 ± 1
O [water]	1.3324 ± 0.00033	999.9 ± 0.24	100.1 ± 1
